# ChEMBL document CHEMBL5230108, “Computational methods-guided design of modulators targeting protein-protein interactions (PPIs)” (Eur J Med Chem, 2020)
# Numbered stars: 1 amine (or outer) side, 2 acyl side, 3 side chain; on linkers, the order of the positions; unused ones are H or OH. Square brackets hold non-standard residues; d marks the D form. Peptide text beside a SMILES is read from it. * marks the point of attachment. ξ: configuration not given here. X1 = O=C(O)c1cc(NC(=S)*)ccc1-c1c2ccc(=O)cc-2oc2cc(O)ccc12; N(2-(2-PhOPh)Et)Gly = O=C(O)CNCCc1ccccc1Oc1ccccc1; Gly(N-3,5-(OMe)2-Ph) = COc1cc(NCC(=O)O)cc(OC)c1; X2 = COc1ccc([C@H](C)N(CC(=O)[*:2])[*:1])cc1; Ala(cPent) = N[C@@H](CC1CCCC1)C(=O)O; N((CH2)3OiPr)Gly = CC(C)OCCCNCC(=O)O; Cbz = O=C(OCc1ccccc1)*; ξI = CCC(C)C(N)C(=O)O; βAla = NCCC(=O)O; ξA = CC(N)C(=O)O
# Legend:
# Heat shock protein HSP90 = Heat shock protein HSP90 (Homo sapiens, UniProt P07900+P08238); experiment: Binding affinity to HSP90 (unknown origin) assessed as dissociation constant; format: protein assay
# [1] = target: Tumour suppressor protein p53/Mdm4 (Homo sapiens, UniProt O15151+P04637); experiment: Inhibition of human DMX-p53 protein-protein interaction […]; format: protein assay
# [2] = Binding affinity to APC/ASEF (unknown origin) protein protein interaction assessed as dissociation constant by ITC analysis; parameters: species or system Homo sapiens
# [3] = Inhibition of full length GST-tagged Wnt (unknown origin) by luciferase assay; parameters: species or system Homo sapiens
# [4] = target: Catenin beta-1/Transcription factor 7 (Homo sapiens, UniProt P35222+P36402); experiment: Inhibition of N-terminal beta-catenin/full length myc-tagged TCF (unknown origin) trasfected in HEK293 cells measured for 48 hrs by; format: cell-based
# [5] = target: Histone-lysine N-methyltransferase 2A (Homo sapiens, UniProt Q03164); experiment: Competitive binding affinity to full length wild type MLL (unknown origin)
# [6] = target: Catenin beta-1/Transcription factor 7 (Homo sapiens) (UniProt P36402+P35222); experiment: Binding affinity to beta-catenin/Tcf (unknown origin) assessed as gibbs free energy change; format: protein assay
# [7] = target: Adenomatous polyposis coli protein (Homo sapiens, UniProt P25054); experiment: Binding affinity to APC (unknown origin) assessed as inhibition constant by ITC analysis
# Chain of Tumour suppressor protein p53/Mdm4 (P04637 whole entry): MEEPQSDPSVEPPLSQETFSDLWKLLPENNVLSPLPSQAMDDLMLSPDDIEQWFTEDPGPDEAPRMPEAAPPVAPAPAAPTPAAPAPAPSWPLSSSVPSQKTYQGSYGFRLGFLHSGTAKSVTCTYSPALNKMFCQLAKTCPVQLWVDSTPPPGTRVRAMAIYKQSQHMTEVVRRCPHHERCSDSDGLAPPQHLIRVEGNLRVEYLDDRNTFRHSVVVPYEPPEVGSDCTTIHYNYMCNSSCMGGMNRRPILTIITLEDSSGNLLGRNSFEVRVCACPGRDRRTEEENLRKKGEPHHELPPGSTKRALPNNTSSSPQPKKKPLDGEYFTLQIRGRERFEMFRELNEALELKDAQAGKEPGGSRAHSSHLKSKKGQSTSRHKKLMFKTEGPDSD
# Chain of Tumour suppressor protein p53/Mdm4 (O15151 whole entry): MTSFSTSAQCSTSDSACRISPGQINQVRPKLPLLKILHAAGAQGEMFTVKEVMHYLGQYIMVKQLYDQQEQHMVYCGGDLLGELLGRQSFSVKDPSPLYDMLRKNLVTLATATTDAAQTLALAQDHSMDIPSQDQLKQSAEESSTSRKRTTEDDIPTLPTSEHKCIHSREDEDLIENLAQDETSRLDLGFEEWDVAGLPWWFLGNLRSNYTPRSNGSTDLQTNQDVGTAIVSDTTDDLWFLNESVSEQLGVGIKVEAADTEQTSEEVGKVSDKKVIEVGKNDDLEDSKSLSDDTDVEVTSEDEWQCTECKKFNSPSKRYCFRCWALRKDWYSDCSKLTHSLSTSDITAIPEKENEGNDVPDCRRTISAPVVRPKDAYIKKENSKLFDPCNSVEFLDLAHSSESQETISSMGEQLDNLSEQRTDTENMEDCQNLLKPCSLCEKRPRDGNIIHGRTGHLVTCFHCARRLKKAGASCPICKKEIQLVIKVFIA
# Chain of Histone-lysine N-methyltransferase 2A (Q03164 1-2718 limits assumed): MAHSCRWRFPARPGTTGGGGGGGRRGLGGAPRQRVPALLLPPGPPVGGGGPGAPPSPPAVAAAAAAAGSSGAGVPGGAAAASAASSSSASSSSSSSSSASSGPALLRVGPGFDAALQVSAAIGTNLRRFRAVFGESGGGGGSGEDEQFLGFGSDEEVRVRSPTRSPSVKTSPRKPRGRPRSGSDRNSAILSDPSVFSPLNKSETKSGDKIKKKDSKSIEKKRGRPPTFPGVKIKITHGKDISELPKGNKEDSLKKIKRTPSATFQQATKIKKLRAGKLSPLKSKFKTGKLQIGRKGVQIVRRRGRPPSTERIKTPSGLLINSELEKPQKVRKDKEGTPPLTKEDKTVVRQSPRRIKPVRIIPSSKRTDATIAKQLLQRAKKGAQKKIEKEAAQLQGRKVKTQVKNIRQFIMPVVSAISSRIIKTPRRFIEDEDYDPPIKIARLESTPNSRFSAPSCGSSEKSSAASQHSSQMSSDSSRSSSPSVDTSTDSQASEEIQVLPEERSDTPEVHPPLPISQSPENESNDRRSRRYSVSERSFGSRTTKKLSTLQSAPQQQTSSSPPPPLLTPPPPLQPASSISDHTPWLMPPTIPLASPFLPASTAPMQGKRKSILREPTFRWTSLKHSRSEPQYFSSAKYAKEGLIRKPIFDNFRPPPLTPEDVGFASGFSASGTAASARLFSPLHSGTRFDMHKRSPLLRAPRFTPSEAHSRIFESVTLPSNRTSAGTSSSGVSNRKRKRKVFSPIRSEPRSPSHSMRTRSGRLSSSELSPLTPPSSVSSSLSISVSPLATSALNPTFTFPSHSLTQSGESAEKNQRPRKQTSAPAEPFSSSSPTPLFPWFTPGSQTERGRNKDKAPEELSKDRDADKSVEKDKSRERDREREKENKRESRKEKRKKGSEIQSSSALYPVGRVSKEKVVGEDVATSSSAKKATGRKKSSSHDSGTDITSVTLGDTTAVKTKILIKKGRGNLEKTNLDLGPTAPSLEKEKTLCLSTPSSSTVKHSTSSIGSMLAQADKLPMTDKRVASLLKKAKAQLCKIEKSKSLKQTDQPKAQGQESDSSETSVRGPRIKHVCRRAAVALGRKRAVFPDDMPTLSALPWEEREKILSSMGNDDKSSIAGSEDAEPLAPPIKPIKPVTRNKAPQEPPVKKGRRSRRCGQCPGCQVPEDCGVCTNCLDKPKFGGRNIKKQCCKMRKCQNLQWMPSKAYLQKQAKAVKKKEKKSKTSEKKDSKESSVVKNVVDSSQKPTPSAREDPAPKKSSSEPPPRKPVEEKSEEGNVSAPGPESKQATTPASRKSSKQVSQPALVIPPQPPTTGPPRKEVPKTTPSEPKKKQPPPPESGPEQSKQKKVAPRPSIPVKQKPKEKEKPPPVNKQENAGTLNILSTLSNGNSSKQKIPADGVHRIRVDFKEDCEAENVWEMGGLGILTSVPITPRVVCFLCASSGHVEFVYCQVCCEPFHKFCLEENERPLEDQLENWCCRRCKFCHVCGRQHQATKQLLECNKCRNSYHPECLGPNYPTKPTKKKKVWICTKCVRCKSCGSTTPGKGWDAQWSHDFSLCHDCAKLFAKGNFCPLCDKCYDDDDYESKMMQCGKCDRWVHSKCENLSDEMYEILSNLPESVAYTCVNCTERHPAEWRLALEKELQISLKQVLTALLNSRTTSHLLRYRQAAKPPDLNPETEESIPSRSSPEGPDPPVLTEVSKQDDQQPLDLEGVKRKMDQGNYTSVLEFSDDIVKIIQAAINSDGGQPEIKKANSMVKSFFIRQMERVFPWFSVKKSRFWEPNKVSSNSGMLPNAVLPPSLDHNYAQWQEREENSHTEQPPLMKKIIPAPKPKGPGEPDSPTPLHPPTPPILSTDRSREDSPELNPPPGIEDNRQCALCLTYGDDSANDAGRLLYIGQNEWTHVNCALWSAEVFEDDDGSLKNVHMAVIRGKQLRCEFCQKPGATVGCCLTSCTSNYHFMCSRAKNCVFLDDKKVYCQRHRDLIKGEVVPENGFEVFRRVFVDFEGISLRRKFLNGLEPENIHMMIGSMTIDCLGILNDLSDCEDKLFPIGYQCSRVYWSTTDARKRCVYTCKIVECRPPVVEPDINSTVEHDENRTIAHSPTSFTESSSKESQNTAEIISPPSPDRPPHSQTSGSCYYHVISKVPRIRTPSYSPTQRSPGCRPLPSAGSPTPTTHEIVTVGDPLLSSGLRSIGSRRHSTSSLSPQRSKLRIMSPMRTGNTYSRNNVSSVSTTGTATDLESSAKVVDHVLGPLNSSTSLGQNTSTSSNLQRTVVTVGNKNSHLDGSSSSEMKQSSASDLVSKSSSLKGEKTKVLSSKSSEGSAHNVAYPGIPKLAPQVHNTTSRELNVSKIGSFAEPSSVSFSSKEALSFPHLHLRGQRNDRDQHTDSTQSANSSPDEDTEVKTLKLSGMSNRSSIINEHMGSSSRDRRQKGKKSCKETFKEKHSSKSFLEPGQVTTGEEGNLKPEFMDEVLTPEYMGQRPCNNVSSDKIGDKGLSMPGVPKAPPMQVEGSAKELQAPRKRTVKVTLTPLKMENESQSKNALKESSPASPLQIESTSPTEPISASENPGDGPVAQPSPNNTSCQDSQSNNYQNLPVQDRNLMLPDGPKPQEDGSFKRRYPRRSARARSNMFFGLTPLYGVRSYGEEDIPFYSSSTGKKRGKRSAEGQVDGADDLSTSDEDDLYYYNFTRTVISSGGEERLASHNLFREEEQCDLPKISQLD
# Chain of Histone-lysine N-methyltransferase 2A (Q03164 2719-3969 limits assumed): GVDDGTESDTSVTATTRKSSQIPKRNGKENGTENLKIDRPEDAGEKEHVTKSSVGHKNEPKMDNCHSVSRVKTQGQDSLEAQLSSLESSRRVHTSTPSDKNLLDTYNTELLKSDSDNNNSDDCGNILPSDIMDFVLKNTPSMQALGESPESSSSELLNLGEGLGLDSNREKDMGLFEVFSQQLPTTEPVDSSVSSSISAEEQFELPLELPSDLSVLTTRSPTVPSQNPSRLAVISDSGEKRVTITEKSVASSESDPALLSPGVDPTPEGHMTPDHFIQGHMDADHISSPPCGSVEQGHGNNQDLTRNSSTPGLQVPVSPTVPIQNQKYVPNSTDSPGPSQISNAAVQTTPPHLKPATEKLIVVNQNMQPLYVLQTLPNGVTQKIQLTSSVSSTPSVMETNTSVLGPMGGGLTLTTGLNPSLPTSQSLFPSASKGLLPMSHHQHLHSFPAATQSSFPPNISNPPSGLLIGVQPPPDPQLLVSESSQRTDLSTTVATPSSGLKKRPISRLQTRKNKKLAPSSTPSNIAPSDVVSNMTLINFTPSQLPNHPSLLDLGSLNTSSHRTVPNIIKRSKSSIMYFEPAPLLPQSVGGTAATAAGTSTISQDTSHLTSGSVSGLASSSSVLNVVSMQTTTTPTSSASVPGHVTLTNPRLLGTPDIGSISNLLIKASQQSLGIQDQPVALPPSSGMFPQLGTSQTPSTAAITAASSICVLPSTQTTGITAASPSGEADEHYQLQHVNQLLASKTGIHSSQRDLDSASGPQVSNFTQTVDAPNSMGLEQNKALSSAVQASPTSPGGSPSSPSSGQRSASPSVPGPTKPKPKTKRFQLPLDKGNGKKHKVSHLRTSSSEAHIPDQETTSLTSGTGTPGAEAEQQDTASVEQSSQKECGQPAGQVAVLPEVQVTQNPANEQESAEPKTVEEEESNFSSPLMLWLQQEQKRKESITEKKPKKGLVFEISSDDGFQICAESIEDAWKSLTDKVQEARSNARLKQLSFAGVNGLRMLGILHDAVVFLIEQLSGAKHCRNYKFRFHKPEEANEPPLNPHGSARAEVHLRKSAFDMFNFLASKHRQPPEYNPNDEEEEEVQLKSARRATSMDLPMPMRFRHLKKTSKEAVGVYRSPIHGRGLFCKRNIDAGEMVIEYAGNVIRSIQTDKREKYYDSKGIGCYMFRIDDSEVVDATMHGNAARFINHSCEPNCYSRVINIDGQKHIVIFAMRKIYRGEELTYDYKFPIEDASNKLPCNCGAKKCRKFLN
SMILES,IC50 [1],also measured
CC(=O)N[C@@H]1C(n2cc([C@@](C)(O)c3cccc(F)c3)nn2)O[C@H](COCc2ccccc2)[C@H](OCc2ccccc2)[C@@H]1OCc1ccccc1 (stereo partly drawn),0.0224 µM,Kd (Heat shock protein HSP90): 21.1 µM
O=C(N[C@@H](Cn1cc(-c2ccccc2)nn1)C(=O)O)OCC1c2ccccc2-c2ccccc21,0.00246 µM,–
C[C@](O)(c1ccccc1)c1cn(C[C@H](NC(=O)OCC2c3ccccc3-c3ccccc32)C(=O)O)nn1,0.00577 µM,–
O=C(N[C@@H](Cn1cc(-c2ccc(F)cc2F)nn1)C(=O)O)OCC1c2ccccc2-c2ccccc21,0.00174 µM,–
C[C@](O)(c1cccc(F)c1)c1cn(C2O[C@H](CO)[C@@H](O)[C@H](O)[C@H]2O)nn1 (stereo partly drawn),0.00024 µM,–
CCC(C)C(NC(=O)C(C)NC(=O)[C@H](CC(C)C)NC(=O)[C@H](CCC(N)=O)NC(=O)[C@H](CCC(=O)O)NC(=O)CNC(=O)CNC(C)=O)C(N)=O (stereo partly drawn) (Ac-GGEQL[ξA][ξI]-NH2),–,Kd [2]: 0.018 µM
"COc1ccc([C@H](C)N2CC(=O)N[C@H](C)C(=O)N(CCc3ccccc3Oc3ccccc3)CC(=O)N(c3cc(OC)cc(OC)c3)CC(=O)N(CCCOC(C)C)CC(=O)N([C@@H](C)c3ccc(OC)cc3)CC2=O)cc1 (cyclo([dA][N(2-(2-PhOPh)Et)Gly][Gly(N-3,5-(OMe)2-Ph)][N((CH2)3OiPr)Gly][X2][X2]))",–,IC50 [3]: 0.105 µM; IC50 [4]: 5.44 µM
CC(=O)N[C@@H]1C(n2cc(-c3ccc(F)cc3F)nn2)O[C@H](COCc2ccccc2)[C@H](OCc2ccccc2)[C@@H]1OCc1ccccc1 (stereo partly drawn),> 0.1 µM,–
C[C@](O)(c1cccc(F)c1)c1cn(CSc2ccccc2)nn1,0.008 µM,–
OC[C@H]1OC(n2cc(-c3ccc(F)cc3F)nn2)[C@H](O)[C@@H](O)[C@@H]1O (stereo partly drawn),0.0001 µM,–
CC[C@H](C)[C@H](NC(=O)[C@H](CC(=O)O)NC(=O)[C@H](CO)NC(=O)CCNC(=S)Nc1ccc(-c2c3ccc(=O)cc-3oc3cc(O)ccc23)c(C(=O)O)c1)C(=O)N[C@@H](CCSC)C(=O)N[C@@H](CC(=O)O)C(=O)N[C@@H](Cc1ccccc1)C(=O)N[C@H](C(=O)N[C@@H](CC(C)C)C(=O)N[C@@H](CCCCN)C(=O)N[C@@H](CC(N)=O)C(=O)N[C@H](C(=O)N1CCC[C@H]1C(N)=O)[C@@H](C)O)C(C)C ({X1-βAla}-SDIMDFVLKNTP-NH2),–,Kd [5]: > 100 µM; Ki [5]: > 1000 µM
COCCN1CC(=O)N(CCc2ccc(OC)cc2)CC(=O)N(c2cc(OC)cc(OC)c2)CC(=O)N(C(C)c2ccc(OC)cc2)CC(=O)N(C(C)c2ccc(OC)cc2)CC(=O)N[C@H](C)C1=O (stereo partly drawn),–,deltaG [6]: -15.9 kcal/mol
Cc1cn([C@H]2C[C@H](n3cc([C@]4(O)CC[C@H]5[C@@H]6CCc7cc(O)ccc7[C@H]6CC[C@@]54C)nn3)[C@@H](CO)O2)c(=O)[nH]c1=O,0.0124 µM,–
C[C@H](NC(=O)OCc1ccccc1)C(=O)NCC(=O)N[C@@H](CCC(=O)O)C(=O)N[C@@H](C)C(=O)N[C@@H](CC1CCCC1)C(=O)N[C@@H](Cc1ccc(O)cc1)C(=O)N[C@@H](CCC(=O)O)C(N)=O (Cbz-AGEA[Ala(cPent)]YE-NH2),–,Ki [7]: 0.015 µM
Fc1ccc(-c2cn(CSc3ccccc3)nn2)c(F)c1,> 0.1 µM,–
